Blank lines part the entries; values can stand above or below the compound they belong to.
Tests used:
[1] = target: T1, System L transporter SLC7A5 (Mus musculus, UniProt Q9Z127); assay: Radiolabelled 3H-kynurenine uptake in T cells; assay type: cell-based
T1 construct: endogenous in cells
Protocol: To activate primary T cells, spleens and/or lymph nodes (LN) were removed, disaggregated and red blood cells lysed. Cells were stimulated with 1 μg/ml of the CD3 monoclonal antibody (2C11) and 2 μg/ml anti-CD28 (37.51; ebiosciences) to trigger the TCR. Naive CD4^+ T cells and 24 h TCR-activated CD4^+ T cells were purified using CD4 isolation kit (EasySep, STEMCELL Technologies). […] Proleukin, Novartis) for a further 3-5 days. To generate TH1s and TH17s, murine CD8^+ T cells were depleted from lymph node preparations using CD8 depletion kit (EasySep, STEMCELL Technologies). […] RnD Systems) and IL-2 (20 ng/ml) and for TH17s; cytokines IL-6 (50 ng/ml, Peprotech), IL-1β (10 ng/ml, Peprotech) and TGFβ (2 ng/ml, Peprotech). TH17s were cultured in IMDM (Gibco). All other cells were cultured in RPMI 1640 containing L-glutamine (Gibco). Culture media was supplemented with 10% FBS (Gibco), 50 μM β-mercaptoethanol (β-ME, Sigma) and penicillin/streptomycin (Gibco). Cells were incubated at 37 °C with 5% CO2 throughout. […] Cells were pelleted below the oil, the aqueous supernatant solution, followed by the silicon oil/dibutyl phthalate mixture was aspirated, and the cell pellet underneath resuspended in 200 μl NaOH (0.5 M) and β-radioactivity measured by liquid scintillation counting in a Beckman LS 6500 Multi-Purpose Scintillation Counter (Beckman Coulter). […] Where indicated, the sodium free buffer was prepared using TMACl as described in Baird et al.[35] Data are expressed as molecules radiotracer per cell per minute. […] All other chemicals were obtained from Sigma.

[2] = target: T1, System L transporter SLC7A5; assay: Flow cytometry kynurenine uptake assay (450 nm fluorescence) in T cells; assay type: cell-based; conditions: for IC50: 37 °C
From the text: For cell surface staining, antibodies conjugated to FITC, PE, APC, Alexafluor 647 (A647), APC-efluor780 (APCe780), and PerCPCy5.5 were obtained from either BD Pharmingen, eBioscience or Biolegend. Fc receptors were blocked using Fc Block (BD Pharmingen). Antibody clones used were: CD4 (RM4-5), CD8a (53-6.7), TCRβ (H57-597), CD44 (IM7), CD45.1 (A20), CD45.2 (104) and CD98 (RC388). Cells were fixed using 1% paraformaldehyde. Standard intracellular cytokine staining protocols were followed for IFNγ (clone XMG1.2; Biolegend) staining. Data were acquired on a LSR Fortessa II with DIVA software or a FACSVerse flow cytometer with FACSuite software (BD Biosciences) and analysed using FlowJo software version 9.9.5 (TreeStar).
Start with at least 1 × 10^6 cells per condition, to obtain at least 200,000 events analysed by flow cytometry at the end of the protocol. […] If required, surface cell antibody staining should be performed prior to uptake assay protocol. This may be performed at room temperature or 4 °C, however test samples must be warmed to 37 °C, e.g. in water bath, prior to kynurenine uptake. (As with all multi-parameter flow cytometry, appropriate antibody staining controls must also be performed.) Samples can be fixed immediately after uptake assay by addition of 4% (vol/vol) paraformaldehyde (PFA; to a final concentration of 1%) for 30 min at room temperature.
For kynurenine uptake assay; pre-warm kynurenine (800 μM, in HBSS), BCH (40 mM, in HBSS) and lysine (20 mM, HBSS) and HBSS to 37 °C. After surface antibody staining of samples, resuspend cells in 200 μl warmed HBSS (1–5 × 10^6 cells in FACS tubes, or scale accordingly into plates). Keep cells in water bath at 37 °C. Add 100 μl of HBSS, or BCH or lysine to appropriate samples. Add 100 μl HBSS to no kynurenine controls (final volume 400 μl). Finally, add 100 μl kynurenine to appropriate samples. Stop uptake after 4 min by adding 125 μl 4% PFA for 30 min at room temperature, in the dark. The final concentrations for uptake assay are: 200 μM kynurenine; +/-10 mM BCH; +/-5 mM lysine. After fixation, wash cells twice in PBS/0.5% BSA and resuspend in PBS/0.5% BSA prior to acquisition on flow cytometer. The 405 nm laser and 450/50 BP filter are used for kynurenine fluorescence detection.
To monitor kynurenine uptake in live cells, acquire data on flow cytometer immediately following addition of kynurenine and plot fluorescence against time.

D3 TH17cond CD4+ T cells = assay: FICZ uptake by flow cytometry (530 nm emission); assay type: cell-based, mouse; conditions: FICZ 300 nM, 4 min, BCH 10 mM
From the text: Error bars are ±s.d. Individual points indicate biological replicates. MFIs are indicated in the histograms, data are from three biological replicates (a–g, i–j) and six (Kyn) or three biological replicates (FICZ) (h).
As a control, we used the AHR ligand 6-formylindolo[3,2-b]carbazole (FICZ), a tryptophan-derived photoproduct. The intrinsic fluorescence of FICZ has previously been used to monitor cellular accumulation of FICZ by flow cytometry using BP filter for 530/30 nm emission with 488 nm laser excitation[27]. […] Further evidence for the importance of System L transport for kynurenine action came from experiments using BCH treatment to inhibit System L transport.

AHR = assay: Cyp1a1 mRNA induction in TH17cond CD4+ T cells (qPCR); assay type: cell-based, mouse
Protocol: To activate primary T cells, spleens and/or lymph nodes (LN) were removed, disaggregated and red blood cells lysed. Cells were stimulated with 1 μg/ml of the CD3 monoclonal antibody (2C11) and 2 μg/ml anti-CD28 (37.51; ebiosciences) to trigger the TCR. Naive CD4^+ T cells and 24 h TCR-activated CD4^+ T cells were purified using CD4 isolation kit (EasySep, STEMCELL Technologies). […] Proleukin, Novartis) for a further 3–5 days. To generate TH1s and TH17s, murine CD8^+ T cells were depleted from lymph node preparations using CD8 depletion kit (EasySep, STEMCELL Technologies). […] RnD Systems) and IL-2 (20 ng/ml) and for TH17s; cytokines IL-6 (50 ng/ml, Peprotech), IL-1β (10 ng/ml, Peprotech) and TGFβ (2 ng/ml, Peprotech). TH17s were cultured in IMDM (Gibco). All other cells were cultured in RPMI 1640 containing L-glutamine (Gibco). Culture media was supplemented with 10% FBS (Gibco), 50 μM β-mercaptoethanol (β-ME, Sigma) and penicillin/streptomycin (Gibco). Cells were incubated at 37 °C with 5% CO2 throughout. […] RNA was purified using the RNeasy RNA purification Mini Kit (Qiagen) (Genomic DNA was digested with RNase-free DNase (Qiagen) following manufacturer instructions) and reverse-transcribed using the iScript cDNA synthesis kit (BioRad). Quantitative PCR was performed in 96-well plate format using iQ SYBR Green-based detection (BioRad) on a BioRad iCycler.

[3] = summary over CTL, TH1 and 24 h TCR-stimulated T cells

T1 sequence (Q9Z127 whole entry): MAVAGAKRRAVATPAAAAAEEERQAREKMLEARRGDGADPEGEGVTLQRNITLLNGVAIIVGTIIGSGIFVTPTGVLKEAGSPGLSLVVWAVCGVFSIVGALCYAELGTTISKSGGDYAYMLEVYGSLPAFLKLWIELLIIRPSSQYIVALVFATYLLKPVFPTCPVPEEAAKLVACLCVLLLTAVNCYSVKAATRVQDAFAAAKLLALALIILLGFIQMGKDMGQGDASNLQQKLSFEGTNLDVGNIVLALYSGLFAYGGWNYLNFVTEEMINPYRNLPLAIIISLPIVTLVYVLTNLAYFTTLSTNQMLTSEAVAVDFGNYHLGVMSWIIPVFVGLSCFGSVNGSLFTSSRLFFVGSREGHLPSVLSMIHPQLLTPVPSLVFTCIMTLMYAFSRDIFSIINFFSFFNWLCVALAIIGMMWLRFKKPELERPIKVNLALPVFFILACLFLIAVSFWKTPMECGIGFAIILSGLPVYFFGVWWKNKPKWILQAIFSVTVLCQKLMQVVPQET
T1 sequence (P10852 whole entry partner): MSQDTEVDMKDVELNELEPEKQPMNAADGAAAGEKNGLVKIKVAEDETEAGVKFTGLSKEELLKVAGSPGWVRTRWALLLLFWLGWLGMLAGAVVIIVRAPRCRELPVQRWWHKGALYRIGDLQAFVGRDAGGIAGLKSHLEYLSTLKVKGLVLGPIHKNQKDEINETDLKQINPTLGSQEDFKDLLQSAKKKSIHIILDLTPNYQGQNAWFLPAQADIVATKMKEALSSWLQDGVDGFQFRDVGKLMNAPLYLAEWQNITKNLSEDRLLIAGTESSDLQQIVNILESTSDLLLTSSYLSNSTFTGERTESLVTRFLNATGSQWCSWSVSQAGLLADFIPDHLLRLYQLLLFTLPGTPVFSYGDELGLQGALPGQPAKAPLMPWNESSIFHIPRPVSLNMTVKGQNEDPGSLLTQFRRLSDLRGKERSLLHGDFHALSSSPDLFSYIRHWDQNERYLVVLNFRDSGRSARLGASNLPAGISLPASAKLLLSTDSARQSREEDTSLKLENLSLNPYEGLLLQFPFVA

SMILES: NC1(C(=O)O)CC2CCC1C2 (stereo not drawn) [BCH, 2-amino-2-norbornanecarboxylic acid]
- Percentage of kynurenine uptake blocked by BCH, 3H-Kyn ([1]; 24 h CD3/CD28 stimulated T cells (TCR), 4 min uptake): 79.1 ± 11.3%
- Percentage of kynurenine uptake blocked by BCH, 3H-Kyn ([1]; CTL, 4 min uptake): 92.5 ± 0.9%
- Percentage of kynurenine uptake blocked by BCH, 3H-Kyn ([1]; TH1, 4 min uptake): 90.2 ± 2.1%
- effect on 3H-kynurenine transport ([1]; TH1 cells and CTLs, BCH 5 mM): inhibited
- radiolabelled kynurenine uptake blocked [1, 3]: 80–90%
- Percentage of kynurenine uptake blocked by BCH, Kyn MFI ([2]; 24 h CD3/CD28 stimulated T cells (TCR), 450 nm fluorescence emission): 77.1 ± 14.7%
- effect on kynurenine uptake ([2]; CD3/CD28 activated wild-type T cells in co-culture, 5 mM lysine, BCH): BCH treatment did
- IC50 ([2]; CTL, 4 min): 492 ± 45 µM
- Percentage of kynurenine uptake blocked by BCH, Kyn MFI ([2]; CTL, 450 nm fluorescence emission): 78.3 ± 4.5%
- IC50 ([2]; D7 rLM CD8+ effector T cells from spleen, ex vivo, 4 min): 161 ± 34 µM
- effect on kynurenine transport ex vivo ([2]; D7 rLM-infected CD8+ T cells, BCH 10 mM, Leu 5 mM, Lys 5 mM): blocked
- effect on kynurenine transport (450 nm fluorescence) ([2]; TCR-stimulated CD8+ T cells or CTLs, 4 min, BCH 10 mM, Leu 5 mM, Lys 5 mM): prevented
- Percentage of kynurenine uptake blocked by BCH, Kyn MFI ([2]; TH1, 450 nm fluorescence emission): 81.0 ± 9.0%
- kynurenine transport blocked as measured by flow cytometry [2, 3]: 80%
- effect on FICZ uptake (D3 TH17cond CD4+ T cells): not affected
- effect on FICZ-induced Cyp1a1 mRNA (AHR; D3 TH17cond CD4+ T cells, FICZ 300 nM 2 h, BCH 25 mM): does not block FICZ mediated Cyp1a1 mRNA induction
- effect on kynurenine-induced Cyp1a1 mRNA (AHR; D3 TH17cond CD4+ T cells, kynurenine 100 μM 2 h, BCH 25 mM): impedes Cyp1a1 mRNA induction in response to kynurenine

- Km ([1]; CTLs, rounded value in Discussion, read-out: Km of kynurenine transport in CTLs): ~200 µM
- Km ([1]; IL-2 maintained CTLs, radiolabelled kynurenine transport assay, read-out: Km for the initial rate of kynurenine transport): 213 µM
- sodium dependence of uptake ([1]; TCR-activated CD4+ T cells, TH1s and CTLs, Na+ containing vs Na+-free buffer): sodium independent
- temperature dependence of kynurenine-mediated increase in MFI ([2]; CTLs, 4 min, 37 °C vs 4 °C): temperature sensitive
- Km ([2]; IL-2 maintained CTLs, flow cytometry assay (MFI), read-out: Km for the initial rate of kynurenine transport): 267 µM
- EC50 (AHR; D3 TH17cond CD4+ T cells, 2 h, read-out: EC50 to drive Cyp1A1 mRNA expression): 11.1 µM
SMILES: Nc1ccccc1C(=O)CC(N)C(=O)O (stereo not drawn) [kynurenine]
- Cyp1a1 mRNA induction, D3 versus D5 post activation (AHR; TH17cond CD4+ T cells, kynurenine 100 μM or FICZ 300 nM, 2 h): strikingly higher on day 3 post activation compared to day 5 cells
